Earlier results on one compound are cited in US5710046A, “Tagging hydrocarbons for subsequent identification” (Amoco Corporation, priority 1994, dated 1998).

Where [1] appears, read: dispersed in methanol or benzene.

In the case of `CCN1C(=CC=CC=CC=Cc2sc3ccc4ccccc4c3[n+]2CC)Sc2ccc3ccccc3c21` [DDTC, 3,3'-diethyl-2,2'-(4,5', 4',5'-dibenzo) thiatricarbocyanine iodide], under setting [1], the fluorescence wavelength entry is recorded as “approximately 840 nanometers” and the strong absorption is 786 nanometers. Moreover, where the note is “in water”, the fluorescence entry is given as “completely non-fluorescent” and the solubility result was “less soluble”.
